Source: patent US4723008A, “Isoprenylamine derivatives” (priority 1981, dated 1988)

Legend:
[1] = tested on: tumor cells KN7 -8; test: Anti-tumor activity (survivors on the 30th day); assay type: in vivo, Balb/c male mice; details: 30 mg/kg intraperitoneally 3 times (24 hours before, second and fifth day after inoculation of 5×10^5 cells); survivors/group
Description: Groups, each consisting of Balb/c male mice weighing about 20 g, were intraperitoneally administered 5×10^5 of tumor cells KN7 -8.

[2] = tested on: Human interferon (normal diploid cells (fibroblast) originated from human being); test: Human interferon inducing activity (in vitro), 3H-uridine-uptake inhibition; assay type: cell-based; details: 25 n molar suspension
Experimental: (5) Human interferon inducing activity (in vitro)
Interferon was induced according to the method of Edward A. Havell et al. by treating normal diploid cells (fibroblast) originated from human being with each test compound in the form of ethanol solution diluted with PBS (--), (25 n molar suspension). Using the radioisotope microassay method or H. Ishitsuka et al., interferon was measured in terms of 3H-uridine-uptakeinhibition rate.

[3] = tested on: vaccinia virus; assay type: in vivo, vaccinia virus; ICR female mice; details: 50 mg/kg intraperitoneally 24 hours before inoculation; lesions counted on 8th day
[4] = Toxicity, 50% lethal dose, intravenous; details: mouse, in vivo, ddY male mice, read-out: LD50 (Intravenous administration mg/kg)
Description: Using ddY male mice weighing 20-25 g, 50% lethal dose of each test compound intravenously administered was obtained, the results of which are shown in Table 6.

[5] = tested on: vaccinia virus (vero cells); assay type: cell-based; details: 50 n molar concentration

Structure (SMILES)	Human interferon 3H-uridine-uptake inhibition rate (%) [2] [%]	Prevention from vaccinia infection (Pock inhibition rate %) [3] [%]	also measured
CC(C)=CCCC(C)=CCCC(C)=CCCC(C)=CCCC(C)=CCCC(C)=CCCC(C)=CCCC(C)=CCCC(C)=CCCC(C)=CCN(Cc1ccccc1)CC(O)CN(CCO)CCO (stereo not shown) [drawing 57]			Anti-tumor activity (Survivor on the 30th day) [1]: 1/6
CC(C)=CCCC(C)=CCCC(C)=CCCC(C)=CCCC(C)=CCCC(C)=CCCC(C)=CCCC(C)=CCCC(C)=CCCC(C)=CCN(Cc1ccccc1)CC(O)CNC(C)(C)C (stereo not shown) [drawing 58]			Anti-tumor activity (Survivor on the 30th day) [1]: 2/6
CC(C)=CCCC(C)=CCCC(C)=CCCC(C)=CCCC(C)=CCCC(C)=CCCC(C)=CCCC(C)=CCCC(C)=CCCC(C)=CCN(Cc1ccccc1)CC(O)CN(CCO)CCO (stereo not shown) [drawing 69]	61.3		
CC(C)=CCCC(C)=CCCC(C)=CCCC(C)=CCCC(C)=CCCC(C)=CCCC(C)=CCCC(C)=CCCC(C)=CCN(CCc1ccccc1)CC(O)CN1CCN(CCO)CC1 (stereo not shown) [drawing 42]		85.6	
COc1ccc(CN(CC=C(C)CCC=C(C)CCC=C(C)CCC=C(C)CCC=C(C)CCC=C(C)CCC=C(C)CCC=C(C)CCC=C(C)C)CC=C(C)CCC=C(C)CCC=C(C)CCC=C(C)CCC=C(C)CCC=C(C)CCC=C(C)CCC=C(C)CCC=C(C)C)cc1OC		32.4	
CC(C)=CCCC(C)=CCCC(C)=CCCC(C)=CCCC(C)=CCCC(C)=CCCC(C)=CCCC(C)=CCCC(C)=CCN(CCc1ccccc1)CC(O)CNC(C)(C)C (stereo not shown) [drawing 71]	32.6		
CC(C)=CCCC(C)=CCCC(C)=CCCC(C)=CCCC(C)=CCCC(C)=CCCC(C)=CCCC(C)=CCCC(C)=CCCC(C)=CCN(CCO)Cc1ccccc1 [drawing 79]	25.4		
CC(C)=CCCC(C)=CCCC(C)=CCCC(C)=CCCC(C)=CCCC(C)=CCCC(C)=CCCC(C)=CCCC(C)=CCN(CCO)Cc1ccccc1 [drawing 66]			LD50 [4]: 791 mg/kg
CC(C)=CCCC(C)=CCCC(C)=CCCC(C)=CCCC(C)=CCCC(C)=CCCC(C)=CCCC(C)=CCCC(C)=CCN(CCCN)CCCN			Anti-tumor activity (Survivor on the 30th day) [1]: 4/6
CC(C)=CCCC(C)=CCCC(C)=CCCC(C)=CCCC(C)=CCCC(C)=CCCC(C)=CCCC(C)=CCCC(C)=CCN(CCO)Cc1ccccc1 [drawing 44]		53.4	
CC(C)=CCCC(C)=CCCC(C)=CCCC(C)=CCCC(C)=CCCC(C)=CCCC(C)=CCCC(C)=CCCC(C)=CCCC(C)=CCN(Cc1ccccc1)CC(O)CN(CCO)CCO (stereo not shown) [drawing 83]			Anti-vaccinia virus activity (Plaque inhibition rate %) [5]: 10.6%
CC(C)=CCCC(C)=CCCC(C)=CCCC(C)=CCCC(C)=CCCC(C)=CCCC(C)=CCCC(C)=CCCC(C)=CCN(CCc1ccccc1)CC(O)CN1CCN(CCO)CC1 (stereo not shown) [drawing 72]	17.4		
CC(C)=CCCC(C)=CCCC(C)=CCCC(C)=CCCC(C)=CCCC(C)=CCCC(C)=CCCC(C)=CCCC(C)=CCCC(C)=CCN1CCOCCOCCNCCOCCOCC1 [drawing 56]			Anti-tumor activity (Survivor on the 30th day) [1]: 3/6
CC(C)=CCCC(C)=CCCC(C)=CCCC(C)=CCCC(C)=CCCC(C)=CCCC(C)=CCCC(C)=CCCC(C)=CCCC(C)=CCN(Cc1ccccc1)CC(O)CN(CCO)CCO (stereo not shown) [drawing 63]			LD50 [4]: 162 mg/kg
CC(C)=CCCC(C)=CCCC(C)=CCCC(C)=CCCC(C)=CCCC(C)=CCCC(C)=CCCC(C)=CCCC(C)=CCCC(C)=CCN(CCO)CC(O)c1ccccc1 (stereo not shown) [drawing 38]		60.1	
CC(C)=CCCC(C)=CCCC(C)=CCCC(C)=CCCC(C)=CCCC(C)=CCCC(C)=CCCC(C)=CCCC(C)=CCN(CCO)Cc1ccccc1 [drawing 74]	5.1		
COc1ccc(CN(CC=C(C)CCC=C(C)CCC=C(C)CCC=C(C)CCC=C(C)CCC=C(C)CCC=C(C)CCC=C(C)CCC=C(C)CCC=C(C)C)CC=C(C)CCC=C(C)CCC=C(C)CCC=C(C)CCC=C(C)CCC=C(C)CCC=C(C)CCC=C(C)CCC=C(C)CCC=C(C)C)cc1		38.8	

Structure (SMILES)	Human interferon 3H-uridine-uptake inhibition rate (%) [2] [%]	Prevention from vaccinia infection (Pock inhibition rate %) [3] [%]	also measured
CC(C)=CCCC(C)=CCCC(C)=CCCC(C)=CCCC(C)=CCCC(C)=CCCC(C)=CCCC(C)=CCCC(C)=CCCC(C)=CCN(CCO)CC(O)c1ccccc1 (stereo not shown) [drawing 68]	4.3		
CC(C)=CCCC(C)=CCCC(C)=CCCC(C)=CCCC(C)=CCCC(C)=CCCC(C)=CCCC(C)=CCCC(C)=CCCC(C)=CCN(CCO)Cc1ccccc1 [drawing 84]			Anti-vaccinia virus activity (Plaque inhibition rate %) [5]: 14.1%
CC(C)=CCCC(C)=CCCC(C)=CCCC(C)=CCCC(C)=CCCC(C)=CCCC(C)=CCCC(C)=CCCC(C)=CCN(Cc1ccccc1)Cc1ccccc1 [drawing 43]		50.3	
CC(C)=CCCC(C)=CCCC(C)=CCCC(C)=CCCC(C)=CCCC(C)=CCCC(C)=CCCC(C)=CCCC(C)=CCCC(C)=CCN1CCN(Cc2ccccc2)CC1 [drawing 78]	3.6		
CC(C)=CCCC(C)=CCCC(C)=CCCC(C)=CCCC(C)=CCCC(C)=CCCC(C)=CCCC(C)=CCCC(C)=CCN(CCc1ccccc1)CC(O)CN1CCN(CCO)CC1 (stereo not shown) [drawing 65]			LD50 [4]: 338 mg/kg
CC(C)=CCCC(C)=CCCC(C)=CCCC(C)=CCCC(C)=CCCC(C)=CCCC(C)=CCCC(C)=CCCC(C)=CCCC(C)=CCN(CCO)CC(O)c1ccccc1 (stereo not shown) [drawing 62]			LD50 [4]: 258 mg/kg
CC(C)=CCCC(C)=CCCC(C)=CCCC(C)=CCCC(C)=CCCC(C)=CCCC(C)=CCCC(C)=CCCC(C)=CCN(Cc1ccccc1)Cc1ccccc1 [drawing 73]	4.4		
CC(C)=CCCC(C)=CCCC(C)=CCCC(C)=CCCC(C)=CCCC(C)=CCCC(C)=CCCC(C)=CCCC(C)=CCCC(C)=CCN(CCO)Cc1ccccc1 [drawing 49]		38.4	
CC(C)=CCCC(C)=CCCC(C)=CCCC(C)=CCCC(C)=CCCC(C)=CCCC(C)=CCCC(C)=CCCC(C)=CCN(CC=C(C)CCC=C(C)CCC=C(C)CCC=C(C)CCC=C(C)CCC=C(C)CCC=C(C)CCC=C(C)CCC=C(C)C)CCCCc1ccccc1		34.1	
CC(C)=CCCC(C)=CCCC(C)=CCCC(C)=CCCC(C)=CCCC(C)=CCCC(C)=CCCC(C)=CCCC(C)=CCCC(C)=CCN1CCN(Cc2ccccc2)CC1 [drawing 48]		64.0	
CC(C)=CCCC(C)=CCCC(C)=CCCC(C)=CCCC(C)=CCCC(C)=CCCC(C)=CCCC(C)=CCCC(C)=CCN(CCc1ccccc1)CC(O)CN1CCN(CCO)CC1 (stereo not shown) [drawing 59]			Anti-tumor activity (Survivor on the 30th day) [1]: 4/6
COc1ccc(CN(CC=C(C)CCC=C(C)C)CC=C(C)CCC=C(C)C)cc1OC	68.4		
CC(C)=CCCC(C)=CCCC(C)=CCCC(C)=CCCC(C)=CCCC(C)=CCCC(C)=CCCC(C)=CCCC(C)=CCCC(C)=CCN1CCOCCOCCNCCOCCOCC1 [drawing 67]	28.3		
CC(C)=CCCC(C)=CCCC(C)=CCCC(C)=CCCC(C)=CCCC(C)=CCCC(C)=CCCC(C)=CCCC(C)=CCCC(C)=CCN(Cc1ccccc1)CC(O)CNC(C)(C)C (stereo not shown) [drawing 70]	59.8		
CC(C)=CCCC(C)=CCCC(C)=CCCC(C)=CCCC(C)=CCCC(C)=CCCC(C)=CCCC(C)=CCCC(C)=CCCC(C)=CCN1CCOCCOCCNCCOCCOCC1 [drawing 37]		57.1	
CC(C)=CCCC(C)=CCCC(C)=CCCC(C)=CCCC(C)=CCCC(C)=CCCC(C)=CCCC(C)=CCCC(C)=CCN(CCc1ccccc1)CC(O)CNC(C)(C)C (stereo not shown) [drawing 41]		82.9	
CC(C)=CCCC(C)=CCCC(C)=CCCC(C)=CCCC(C)=CCCC(C)=CCCC(C)=CCCC(C)=CCCC(C)=CCN(CCc1ccccc1)CC(O)CNC(C)(C)C (stereo not shown) [drawing 64]			LD50 [4]: 28 mg/kg
